Experimental data taken from patent US7528252B2, “Derivatives of triazoly-imidazopyridine useful as ligands of the adenosine A2a receptor and their use as medicaments” (Sigma-Tau Industrie Farmaceutiche Riunite S.p.A., priority 2002, dated 2009).
Where two headings read alike, the source gives them in different places.

Legend:
[1] = target: T1, Cholinetransporter (Homo sapiens, UniProt Q9GZV3); assay: Receptor binding study, Choline transporter; settings: reference compound
T1 sequence (Q9GZV3 1-580): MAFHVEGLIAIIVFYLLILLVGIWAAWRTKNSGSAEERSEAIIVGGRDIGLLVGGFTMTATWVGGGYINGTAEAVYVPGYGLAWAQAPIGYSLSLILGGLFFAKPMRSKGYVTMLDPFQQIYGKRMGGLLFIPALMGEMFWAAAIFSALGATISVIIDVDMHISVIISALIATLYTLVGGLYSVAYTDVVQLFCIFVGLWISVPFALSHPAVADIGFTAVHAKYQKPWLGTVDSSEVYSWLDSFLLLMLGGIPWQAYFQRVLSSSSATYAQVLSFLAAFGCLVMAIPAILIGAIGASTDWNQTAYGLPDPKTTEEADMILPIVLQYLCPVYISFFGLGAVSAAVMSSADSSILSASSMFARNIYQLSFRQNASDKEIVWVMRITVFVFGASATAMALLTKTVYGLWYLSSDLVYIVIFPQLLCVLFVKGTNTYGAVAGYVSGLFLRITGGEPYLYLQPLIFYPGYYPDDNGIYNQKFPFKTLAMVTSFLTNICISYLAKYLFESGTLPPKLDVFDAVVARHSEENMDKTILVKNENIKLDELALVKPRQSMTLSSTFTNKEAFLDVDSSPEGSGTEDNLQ

[2] = target: T2, human A2b receptor (Homo sapiens, UniProt P29275); assay: Affinity towards the adenosine A2b receptor ([3H]-DPCPX binding, HEK 293 membranes); settings: read-out: A2b Ki (nM) ± sd
T2 construct: expressed in transfected cells; host or cells: HEK 293
T2 sequence (P29275 1-332): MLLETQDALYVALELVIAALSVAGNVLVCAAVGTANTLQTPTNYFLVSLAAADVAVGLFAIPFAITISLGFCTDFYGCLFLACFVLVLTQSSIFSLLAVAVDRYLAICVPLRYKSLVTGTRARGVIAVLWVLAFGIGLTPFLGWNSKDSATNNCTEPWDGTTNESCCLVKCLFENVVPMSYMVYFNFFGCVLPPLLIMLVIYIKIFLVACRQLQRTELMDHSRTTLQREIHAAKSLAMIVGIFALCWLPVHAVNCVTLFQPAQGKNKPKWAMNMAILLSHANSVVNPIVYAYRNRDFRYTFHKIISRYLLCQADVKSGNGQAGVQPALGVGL
Protocol: The interactive capacity of each product towards the adenosine A2b receptor was evaluated using membranes from HEK 293 cells stably expressing the human A2b receptor subtype exclusively.
Non-specific binding was measured in the presence of NECA (50 μM).
In binding studies for each compound, eight different concentrations (from 10^−5 M to 10^−12 M) were evaluated in order to obtain competition curves. By means of non-linear regression analysis of the competition curves, the IC50 values, which express the binding affinity of each product, were determined. Using the Cheng Prusoff equation (Ki=IC50/1+(L/Kd)) Ki values were calculated through which the affinity of each product studied, for the receptor investigated, is expressed.

[3] = target: T3, human A1 subtype adenosine receptor (Homo sapiens, UniProt P30542); assay: Affinity towards the adenosine A1 receptor ([3H]-DPCPX binding, CHO-K1 membranes); settings: read-out: A1 Ki (nM) ± sd
T3 construct: expressed in transfected cells; host or cells: CHO-K1
T3 sequence (P30542 1-326): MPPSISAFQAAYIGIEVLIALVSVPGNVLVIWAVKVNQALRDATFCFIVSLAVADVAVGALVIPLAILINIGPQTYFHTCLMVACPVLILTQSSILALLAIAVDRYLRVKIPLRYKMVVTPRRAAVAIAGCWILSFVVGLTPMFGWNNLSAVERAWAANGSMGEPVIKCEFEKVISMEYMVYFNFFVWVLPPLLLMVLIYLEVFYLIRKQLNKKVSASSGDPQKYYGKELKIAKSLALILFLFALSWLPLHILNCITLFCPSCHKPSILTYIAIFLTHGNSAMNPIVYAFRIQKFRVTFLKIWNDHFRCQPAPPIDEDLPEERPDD

[4] = target: T4, human A2a receptor (Homo sapiens, UniProt P29274); settings: for KiA1/KiA2a: ratio of receptor affinity (selectivity); for Ki: read-out: A2a Ki (nM) ± sd, human A2a, HEK 293 membranes, [3H]-CGS21680
[5] = target: T4, human A2a receptor; assay: biochemical
[6] = target: GABAa; assay: Receptor binding study, GABAa; settings: reference compound
[7] = target: PCP; assay: Receptor binding study, PCP; settings: reference compound
[8] = target: NMDA; assay: Receptor binding study, NMDA; settings: reference compound
[9] = system: CD1 male mice; assay: Capacity of the products to induce catalepsy in mice; format: in vivo; settings: endoperitoneal, 30 minutes prior to the test
Protocol: 10 CD1 male mice were used per group. For this test, a steel bar, 10 cm long, was placed at a height of 4.5 cm above the support surface. Onto this, were placed the front legs of the animals. The presence of catalepsy was determined by measuring the time (in seconds) the animal remained in the posture placed. Later, this parameter was placed relatively, on a scale of rising values (0 to 5) through which, the degree of catalepsy determined in both control animals and in these subjected to treatment with the substances under test could be proportionately expressed.
The reference products and these in this study were administered endoperitoneally, in a volume of 10 ml/kg, 30 minutes prior to the test.
Except for CGS 21680 (reference compound) which was dissolved in 0.9% NaCl, the products in the study and the control antagonist ZM 241385 were solubilised in DMSO and then diluted in Cremofor EL and 0.9% NaCl (final concentrations: DMSO 15%, Cremofor EL 15%, NaCl 0.9%).

[10] = system: CD1 male mice; assay: Effects on spontaneous motor activity in mice; format: in vivo; settings: for Horizontal activity / Total distance / Vertical activity: mean ± s.e.
Protocol: For this study, type CD1 male mice (n=8) were used. The effects of the products under study and of the reference compounds were evaluated using an apparatus consisting of a Plexiglas cage (40 cm×40 cm) surrounded by a series of photocells which monitor the movements of the animals placed inside, connected a computerised system, through which, the signals are collected and later elaborated.
Tests were carried out, after endoperitoneal administration of the products. 15 minutes after treatment, the treated animals, alternating with the controls, were placed inside the cage so as to record their spontaneous movements over a total period of 45 minutes broken down into two observation intervals (15′-45′ and 45′-60′, with respect to the time after treatment).
To examine the possible effects of the compounds studied on motor activity, the following parameters were considered: horizontal activity, vertical activity: total distance.
Except for CGS 21680 (reference compound, described in EP 0 277 917, Ciba-Geigy) which was dissolved in 0.9% NaCl, the products studied were solubilised in DMSO and then diluted in Cremofor EL and 0.9% NaCl (final concentrations: DMSO 15%, Cremofor EL 15%, NaCl 0.9%.

[11] = target: P2Y; assay: Receptor binding study, P2Y; settings: reference compound
[12] = target: T5, M5 (Homo sapiens, UniProt P08912); assay: Receptor binding study, M5; settings: reference compound
T5 sequence (P08912 1-532): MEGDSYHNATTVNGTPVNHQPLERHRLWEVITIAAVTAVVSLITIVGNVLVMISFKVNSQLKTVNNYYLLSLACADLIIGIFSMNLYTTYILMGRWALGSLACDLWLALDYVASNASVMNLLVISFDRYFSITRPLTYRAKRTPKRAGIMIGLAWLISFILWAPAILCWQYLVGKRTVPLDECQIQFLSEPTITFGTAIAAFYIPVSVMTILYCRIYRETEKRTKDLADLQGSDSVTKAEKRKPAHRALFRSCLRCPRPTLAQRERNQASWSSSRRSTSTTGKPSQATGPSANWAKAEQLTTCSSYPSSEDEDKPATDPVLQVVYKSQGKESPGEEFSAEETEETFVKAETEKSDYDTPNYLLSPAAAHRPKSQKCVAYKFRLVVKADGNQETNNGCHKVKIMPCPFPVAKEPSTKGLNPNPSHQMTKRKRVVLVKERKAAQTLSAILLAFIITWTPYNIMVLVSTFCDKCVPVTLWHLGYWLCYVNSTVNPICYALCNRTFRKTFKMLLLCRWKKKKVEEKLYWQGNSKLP

[13] = system: mice; assay: Forced swim test in mice; format: in vivo; settings: 60 minutes before the test; 4 minutes of testing period
Protocol: Mice were dropped individually into glass cylinders (height: 25 cm, internal diameter 10 cm) containing 10 cm water, maintained at 23° C. The immobility time (sec) was measured during 4 minutes of test. A mouse was judged to be immobile when it remained floating in the water, making only the necessary movements to keep its head above water. Test compound ST 1535 was administered orally to mice, 60 minutes before the test.

[14] = target: P2X; assay: Receptor binding study, P2X; settings: reference compound
[15] = target: ADOtransporter; assay: Receptor binding study, ADO transporter; settings: reference compound
[16] = 2.5 mg/kg endoperitoneal, interval 15′-45′ from treatment
[17] = 2.5 mg/kg endoperitoneal, interval 45′-60′ from treatment
[18] = 5 mg/kg endoperitoneal, interval 15′-45′ from treatment
[19] = 5 mg/kg endoperitoneal, interval 45′-60′ from treatment
[20] = 10 mg/kg endoperitoneal, interval 15′-45′ from treatment
[21] = 10 mg/kg endoperitoneal, interval 45′-60′ from treatment
[22] = 0.5 mg/kg endoperitoneal, interval 15′-45′ from treatment
[23] = 0.5 mg/kg endoperitoneal, interval 45′-60′ from treatment

T4 sequence (P29274 whole entry): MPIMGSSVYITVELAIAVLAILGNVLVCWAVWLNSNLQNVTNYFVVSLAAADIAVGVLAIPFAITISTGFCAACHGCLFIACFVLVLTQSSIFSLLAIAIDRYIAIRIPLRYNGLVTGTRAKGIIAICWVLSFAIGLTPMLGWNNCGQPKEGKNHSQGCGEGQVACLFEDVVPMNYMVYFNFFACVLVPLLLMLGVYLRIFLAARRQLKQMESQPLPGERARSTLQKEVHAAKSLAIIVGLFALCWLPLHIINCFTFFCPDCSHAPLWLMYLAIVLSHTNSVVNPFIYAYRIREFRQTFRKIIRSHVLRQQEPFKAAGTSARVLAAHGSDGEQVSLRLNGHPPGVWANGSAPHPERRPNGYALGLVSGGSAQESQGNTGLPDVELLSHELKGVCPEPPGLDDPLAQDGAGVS

C[N+]1(C)CCOC(O)(c2ccc(-c3ccc(C4(O)C[N+](C)(C)CCO4)cc3)cc2)C1 (stereo not drawn) [Hemicholinium-3, reference compound]
IC50 [1]: 12 nM

O=c1nc2[nH]c3ccccc3nc-2c(=O)[nH]1 [Alloxazine, reference compound]
Ki [2]: 3.8 ± 2.1 nM

Cn1c(-n2nccn2)nc2c(N)nccc21 [ST 1680, 4-amino-1-methyl-2-(triazol-2-yl)-1(H)-imidazo[4,5-c]pyridino triflate]
Ki [2]: 926 ± 55 nM
Ki [3]: 1560 ± 252 nM
KiA1/KiA2a [4]: 16
Ki [5]: 97 ± 23 nM

NCc1cc(=O)[nH]o1 [muscimol, reference compound]
IC50 [6]: 16 nM

Cn1c(-n2nccn2)nc2c(N)ncnc21 [ST 1490, 6-amino-9-methyl-8-(triazol-2-yl)-9(H)-purine]
Ki [3]: 0.43 nM
KiA1/KiA2a [4]: 0.009
Ki [4]: 46 nM

C[C@]12N[C@H](Cc3ccccc31)c1ccccc12 [MK-801, reference compound]
IC50 [7]: 2 nM

O=C(O)[C@@H]1C[C@H](CP(=O)(O)O)CCN1 [CGS 19755, reference compound]
IC50 [8]: 967 nM

Cn1c(-n2nccn2)nc2c(N)nc(CCc3ccccc3)nc21 [ST 1537, 9-methyl-2-(2-phenylethyl)-8-(2H-1,2,3-triazol-2-yl)-9H-purine-6-ylamine]
appearance of catalepsy in mice (FIG. 1) [9]: none of them brought about the appearance of catalepsy in mice
Ki [2]: 2330 ± 588 nM
Horizontal activity [10, 16]: 7494 ± 565
Total distance [10, 16]: 1676 ± 204
Vertical activity [10, 16]: 590 ± 78
Horizontal activity [10, 17]: 3133 ± 250
Total distance [10, 17]: 677 ± 105
Vertical activity [10, 17]: 210 ± 17
Horizontal activity [10, 18]: 7203 ± 264
Total distance [10, 18]: 1503 ± 116
Vertical activity [10, 18]: 498 ± 77
Horizontal activity [10, 19]: 2844 ± 299
Total distance [10, 19]: 532 ± 95
Vertical activity [10, 19]: 363 ± 91
Horizontal activity [10, 20]: 8242 ± 847
Total distance [10, 20]: 2707 ± 950
Vertical activity [10, 20]: 528 ± 126
Horizontal activity [10, 21]: 3874 ± 295
Total distance [10, 21]: 843 ± 149
Vertical activity [10, 21]: 276 ± 57
effect on motor activity in mice (in words) ([10]; independently of the dosage administered (2.5-10 mg/kg)): induces a clear increase in motor activity
Ki [3]: 80 ± 13 nM

Nc1ncnc2c1ncn2[C@H]1C[C@H](O)[C@@H](COP(O)(=S)OP(=O)(O)OP(=O)(O)O)O1 (stereo partly drawn) [dATPα S, reference compound]
IC50 [11]: 22 nM

CCNC(=O)[C@H]1O[C@@H](n2cnc3c(N)nc(NCCc4ccc(CCC(=O)O)cc4)nc32)[C@H](O)[C@@H]1O [CGS 21680, reference compound]
Horizontal activity [10, 22]: 1608 ± 328
Total distance [10, 22]: 504 ± 106
Vertical activity [10, 22]: 27 ± 11
Horizontal activity [10, 23]: 471 ± 254
Total distance [10, 23]: 121 ± 73
Vertical activity [10, 23]: 10 ± 1

C[N+]1(C)CCC(OC(=O)C(c2ccccc2)c2ccccc2)CC1 [Compound 4-DAMP, reference compound]
IC50 [12]: 2 nM

CN(C)CCCN1c2ccccc2CCc2ccccc21 [imipramine, reference compound]
time of immobility, forced swim test (FIG. 5) [13]: in a manner similar to that observed for the antidepressive drug Imipramine

Nc1ncnc2c1ncn2[C@@H]1O[C@H](COP(=O)(O)CP(=O)(O)OP(=O)(O)O)[C@@H](O)[C@H]1O [α,β-MeATP, reference compound]
IC50 [14]: 14 nM

Cc1nc(N)c2nc(-n3nccn3)n(C)c2n1 [ST 1491, 6-amino-2,9-dimethyl-8-(triazol-2-yl)-9(H)-purine]
Ki [3]: 10 ± 1.4 nM
KiA1/KiA2a [4]: 0.15
Ki [4]: 70 ± 15 nM

O=[N+]([O-])c1ccc(CSc2ncnc3c2ncn3[C@@H]2O[C@H](CO)[C@@H](O)[C@H]2O)cc1 [NBTI, reference compound]
IC50 [15]: 0.3 nM
